Source: US7094423B1, “Methods for preparation of lipid-encapsulated therapeutic agents” (INEX Pharmaceuticals Corp., priority 1999, dated 2006)
Values joined by “and” are separate entries in the source; they are usually repeats but may differ in a detail not shown here. Identical values can stand only once.

Legend:
Format in all cases: physicochemical
[1] = OliGreen assay: percentage of oligo that is encapsulated; conditions: for Encap Oligo %: Ex. 2 procedure
Method: The Oligreen Assay was used to quantify the amount of oligonucleotide loaded into the vesicles. A fluorescent dye binding assay for quantifying single stranded oligonucleotide in aqueous solutions was established using a Biolumin™ 960 fluorescent plate reader (Molecular Dynamics, Sunnyvale, Calif., USA). Briefly, aliquots of encapsulated oligonucleotide were diluted in HEPES buffered saline (HBS; 20 mM HEPES, 145 mM NaCl, pH 7.5). A 10 μL aliquot of the diluted sample was added to 100 μL of a 1:200 dilution of Oligreen™ reagent, both with and without 0.1% of Triton X-100 detergent. An oligo standard curve was prepared with and without 0.1% Triton X-100 for quantification of encapsulated oligo. Fluorescence of the Oligreen™-antisense complex was measured using excitation and emission wavelengths of 485 nm and 520 nm, respectively. Surface associated antisense was determined by comparing the fluorescence measurements in the absence and presence of detergent.
(§1) [formula] The percentage of oligo that is encapsulated (i.e., incorporated in bilayers or entrapped in the interior of the lipid particle) was determined with the OliGreen assay described above.

[2] = Dynamic light scattering: vesicle size; conditions: for Size [nm]: DSPC/Chol/DODAP/PEG-CerC14 20/45/25/10 mol %, initial oligonucleotide-to-lipid 0.23 mg/mg, number-averaged
Method: Dynamic light scattering. Sizes were determined by dynamic light scattering using a NICOMP 370 particle sizer (Nicomp Particle Sizing Inc., Santa Barbara, Calif.). Throughout the application, number-averaged sizes are presented, which were obtained by a cumulant fit from the experimental correlation functions. The polydispersity is expressed as the half-width at half-height of a monomodal Gaussian size distribution. The viscosity of the ethanol/citrate buffer was determined using an Ubelohde-type viscometer (Cannon 50). […] The zeta potential was determined by electrophoretic light scattering using a Coulter light scattering instrument (DELSA, Coulter Electronics Inc., FL).

[3] = Final drug/lipid ratio and encapsulation efficiency (E.E.)
Method: The procedure of Example 2 was repeated with changes to various parameters to determine which might be critical to the preparation of fully lipid-encapsulated therapeutic agent particles in accordance with the invention. In these experiments, the total oligonucleotide recovery (yield), the total lipid recovery (yield) and the encapsulation efficiency were considered as indications of the quality of the product and the process. Total oligonucleotide recovery was calculated using the formula:
[formula] Encapsulation Efficiency (E.E.) was calculated using the formula:
as §1

[4] = Trapping efficiency of oligonucleotide in liposomes after anion exchange chromatography
Method: Entrapment procedure. […] At pH 7.5 DODAP becomes charge-neutral and oligonucleotides bound to the external membrane surface are released from their association with the cationic lipid. Unencapsulated oligonucleotides were subsequently removed by anion exchange chromatography on DEAE-sepharose CL-6B columns equilibrated in HBS pH 7.5. When octylglucoside was used in place of ethanol the detergent was added to liposomes (1:1 v/v) to final concentrations ranging from 30–40 mM. All the subsequent steps were performed as described above except for the initial dialysis step against pH 4 citrate buffer, which was extended to 5 hrs. In the following examples, if not otherwise mentioned, DSPC/Chol/PEG-CerC14/DODAP liposomes (20:45:10:25 mol %), c-myc (Seq. ID No. 1), 40% (v/v) ethanol, 300 mM citrate buffer and incubation at 40° C. were used.
Determination of trapping efficiencies: Trapping efficiencies were determined after removal of external oligonucleotides by anion exchange chromatography. Oligonucleotide concentrations were determined by UV-spectroscopy on a Shimadzu UV160U spectrophotometer. The absorbance at 260 nm was measured after solubilization of the samples in chloroform/methanol at a volume ratio of 1:2.1:1 chloroform/methanol/aqueous phase (sample/HBS). If the solution was not completely clear after mixing an additional 50–100 μl of methanol was added. Alternatively, absorbance was read after solubilization of the samples in 100 mM octylglucoside. The antisense concentrations were calculated according to: c [μg/μl]=A260*1 OD260 unit [μg/μl]*dilution factor [μg/μl], where the dilution factor is given by the total assay volume […] divided by the sample volume [μl]. OD260 units were calculated from pairwise extinction coefficients for individual deoxy-nucleotides, which take into account nearest neighbor interactions. 1OD corresponds to 30.97 μg/ml c-myc (Seq. ID. No 1), 33.37 μg/ml h-ICAM-1 (Seq. ID No. 2) and 34 μg/ml EGFR (Seq. ID No. 3). Lipid concentrations were determined by the inorganic phosphorus assay after separation of the lipids from the oligonucleotides by a Bligh and Dyer extraction (Bligh and Dyer, 1959). Briefly, to 250 μl of aqueous phase (sample/HBS) 525 μl methanol and 250 μl chloroform were added to form a clear single phase (aqueous phase/methanol/chlorofrom 1:2.1:1 vol). If the solution was not clear a small amount of methanol was added. Subsequently, 250 μl HBS and an equal volume of chloroform were added. The samples were mixed and centrifuged for 5–10 min at 3000 rpm. […] The chloroform phase was assayed for phospholipid content according to the method of Fiske and Subbarrow (1925). If not otherwise mentioned, trapping efficiencies were expressed as oligonucleotide-to-lipid weight ratios [w/w].

[5] = as above; conditions: DSPC/Chol/DODAP/PEG-CerC14 liposomes; initial ATP-to-lipid ratio 0.2 mg/mg; 50 mM citrate buffer
[6] = Leakage experiments: ethanol-induced permeabilization of LUVs; conditions: DSPC/Chol/PEG-CerC14/DODAP liposomes, 40° C.
Method: Leakage experiments. Ethanol-induced permeabilization of LUVs was measured at different temperatures and as a function of the size (MW) of the entrapped solute. […] Leakage of calcein entrapped at self-quenching concentrations was followed by monitoring the dequenching of the calcein fluorescence. LUVs were prepared by hydration of a lipid film with an aqueous solution containing 75 mM calcein and 5 mM HEPES adjusted to pH 7.5 by addition of sodium hydroxide, followed by 5 freeze/thaw cycles and extrusion through 2 stacked 100 nm filters (10 passes). In the case of […] extrusion was performed at 60° C. Unentrapped calcein was exchanged against an isoosmotic HBS buffer by anion exchange chromatography on a DEAE Sepharose CL6B column. The liposome stock solution was diluted to a lipid concentration of 3 μM in HBS containing varying amounts of ethanol pre-equilibrated at 25, 40 or 60° C. The fluorescence at 520 nm was measured (excitation wavelength […], long-pass filter at 430 nm) with a Perkin Elmer LS50 Fluorimeter (Perkin Elmer) after 5 min of incubation at the corresponding temperature. […] The FITC/LRh-PE ratio was measured before and after addition of ethanol. FITC and LRh-PE fluorescence were measured at 515 nm and 590 nm with the excitation wavelength set to 485 nm and 560 nm, respectively.

[7] = citrate buffer 50 mM, initial drug/lipid 0.1
[8] = citrate buffer 100 mM, initial drug/lipid 0.1
[9] = citrate buffer 200 mM, initial drug/lipid 0.1
[10] = citrate buffer 300 mM, initial drug/lipid 0.1
[11] = incubation temp RT(20–22) °C, 1 hour
[12] = initial EtOH 33%, initial drug/lipid 0.2
[13] = initial EtOH 36%, initial drug/lipid 0.1
[14] = initial EtOH 40%, initial drug/lipid 0.2
[15] = initial EtOH 43%, initial drug/lipid 0.1
[16] = initial EtOH 43%, initial drug/lipid 0.2
[17] = initial EtOH 45%, initial drug/lipid 0.1
[18] = oligo stock 10 mg/ml, initial drug/lipid 0.1
[19] = oligo stock 20 mg/ml, initial drug/lipid 0.1
[20] = oligo stock 30 mg/ml, initial drug/lipid 0.1
[21] = oligo stock 40–50 mg/ml, initial drug/lipid 0.1
[22] = 2.5 mol % PEG-CerC14, 40% ethanol, initial oligonucleotide-to-lipid 0.037 mol/mol, listed as c-myc
[23] = 5 mol % PEG-CerC14, 40% ethanol, initial oligonucleotide-to-lipid 0.037 mol/mol
[24] = 10 mol % PEG-CerC14, 40% ethanol, initial oligonucleotide-to-lipid 0.037 mol/mol, listed as c-myc
[25] = DSPC/Chol/DODAP liposomes (no modified lipid), 0% EtOH [v/v], molar ODN/lipid 0.035, pH 4
[26] = DSPC/Chol/DODAP liposomes (no modified lipid), 20% EtOH [v/v], molar ODN/lipid 0.035, pH 4
[27] = DSPC/Chol/DODAP liposomes (no modified lipid), 30% EtOH [v/v], molar ODN/lipid 0.035, pH 4
[28] = Ex. 2 procedure, initial drug/lipid ratio 0.1
[29] = Ex. 2 procedure, initial drug/lipid ratio 0.2

Compound: 5′-TAACGTTGAGGGGCAT-3′ (listed as DNA, chemistry not given here) [INX-6295]
- Encap Oligo % ([1]; initial drug/lipid ratio 0.1): ≧90%
- Encap Oligo % ([1]; initial drug/lipid ratio 0.2): ≧80%
- Encapsulated Oligo % [1, 7]: 94%
- Encapsulated Oligo % [1, 8]: 90%
- Encapsulated Oligo % [1, 9]: 91%
- Encapsulated Oligo % [1, 10]: 92%
- Encaps Oligo % ([1]; incubation temp 40 °C, 1 hour): 91%
- Encaps Oligo % ([1]; incubation temp 60 °C, 1 hour): 83%
- Encaps Oligo % [1, 11]: 90%
- Encapsulated Oligo % ([1]; incubation time 0.5 hr at 40° C.): 92%
- Encapsulated Oligo % ([1]; incubation time 1 hr at 40° C.): 94%
- Encapsulated Oligo % ([1]; incubation time 2 hr at 40° C.): 95%
- Encaps Oligo % [1, 12]: 88%
- Encaps Oligo % [1, 13]: 85–89%
- Encaps Oligo % [1, 14]: 82%
- Encaps Oligo % [1, 15]: 84–89%
- Encaps Oligo % [1, 16]: 62%
- Encaps Oligo % [1, 17]: 90–92%
- Encaps Oligo % [1, 18]: 90%
- Encaps Oligo % [1, 19]: 88%
- Encaps Oligo % [1, 20]: 90%
- Encaps Oligo % [1, 21]: 88–94%
- Average size [nm] ([2]; 2.5 mol % PEG-CerC14, 25% ethanol, initial oligonucleotide-to-lipid 0.037 mol/mol): 125 ± 35 (108 ± 26) nm
- Average size [nm] [2, 22]: 131±40 nm and 131 ± 40 (108 ± 26) nm
- Average size [nm] [2, 23]: 126 ± 36 (107 ± 22) nm
- Average size [nm] ([2]; 10 mol % PEG-CerC14, 25% ethanol, initial oligonucleotide-to-lipid 0.037 mol/mol): 92 ± 18 (93 ± 18) nm
- Average size [nm] [2, 24]: 100±26 nm and 100 ± 26 (93 ± 18) nm
- Average size [nm] [2, 25]: 148 ± 56 nm
- Average size [nm] [2, 26]: 226 ± 104 nm
- Average size [nm] [2, 27]: 470 ± 244 nm
- Vesicle Size (nm) [2, 28]: 106 nm
- Vesicle Size (nm) [2, 29]: 119 nm
- Size [nm] ([2]; OGP 30 mM in place of ethanol): 65 ± 12 nm
- Size [nm] ([2]; OGP 35 mM in place of ethanol): 100 ± 22 nm
- Size [nm] ([2]; OGP 40 mM in place of ethanol): 145 ± 38 nm
- Vesicle Size (nm) [2, 7]: 80 nm
- Vesicle Size (nm) [2, 8]: 90 nm
- Vesicle Size (nm) [2, 9]: 93 nm
- Vesicle Size (nm) [2, 10]: 106 nm
- Vesicle Size (nm) ([2]; incubation temp 40 °C, 1 hour): 109 nm
- Vesicle Size (nm) ([2]; incubation temp 60 °C, 1 hour): 140 nm
- Vesicle Size (nm) [2, 11]: 114 nm
- Vesicle Size (nm) [2, 12]: 115 nm
- Vesicle Size (nm) [2, 13]: 110 nm
- Vesicle Size (nm) [2, 14]: 114 nm
- Vesicle Size (nm) [2, 15]: 116 nm
- Vesicle Size (nm) [2, 16]: 105 nm
- Vesicle Size (nm) [2, 17]: 108 nm
- size and polydispersity of liposomes ([2]; initial ODN-to-lipid weight ratio of 0.2): 110±30 nm
- Vesicle Size (nm) [2, 18]: 106 nm
- Vesicle Size (nm) [2, 19]: 112 nm
- Vesicle Size (nm) [2, 20]: 110 nm
- Vesicle Size (nm) [2, 21]: 106 nm
- E.E. % [3, 28]: 100%
- Final Drug/Lipid Ratio [3, 28]: 0.1
- Final Drug/Lipid Ratio [3, 29]: 0.17–0.2
- E.E. % [3, 12]: 60%
- Final Drug/Lipid [3, 12]: 0.12
- E.E. % [3, 14]: 75%
- Final Drug/Lipid [3, 14]: 0.15
- E.E. % [3, 16]: 95%
- Final Drug/Lipid [3, 16]: 0.19
- % encapsulation [4, 22]: 45% and 45.7%
- % encapsulation [4, 23]: 50.9%
- % encapsulation ([4]; 10 mol % PEG-CerC14, 25% ethanol, initial oligonucleotide-to-lipid 0.037 mol/mol, listed as c-myc): 5%
- % encapsulation [4, 24]: 60% and 56.5%
- final antisense-to-lipid ratio ([4]; 10 mol % PEG-CerC14 liposomes, initial antisense-to-lipid weight ratio 0.29): 0.16
- % encapsulation [4, 25]: 4.4%
- % encapsulation [4, 26]: 20.5%
- % encapsulation [4, 27]: 32.5%
- % encapsulation ([4]; OGP 30 mM in place of ethanol, DSPC/Chol/DODAP/PEG-CerC14 20/45/25/10 mol %, initial oligonucleotide-to-lipid 0.23 mg/mg): 51%
- % encapsulation ([4]; OGP 35 mM in place of ethanol, DSPC/Chol/DODAP/PEG-CerC14 20/45/25/10 mol %, initial oligonucleotide-to-lipid 0.23 mg/mg): 57%
- % encapsulation ([4]; OGP 40 mM in place of ethanol, DSPC/Chol/DODAP/PEG-CerC14 20/45/25/10 mol %, initial oligonucleotide-to-lipid 0.23 mg/mg): 55%
- oligonucleotide molecules per 100 nm liposome ([4]; at maximum entrapment): approximately 2250

Compound: Nc1ncnc2c1ncn2[C@@H]1O[C@H](COP(=O)(O)OP(=O)(O)OP(=O)(O)O)[C@@H](O)[C@H]1O [ATP]
- fraction entrapped [5]: less than 10%

Compound: O=C(O)CN(CC(=O)O)Cc1cc2c(cc1O)Oc1cc(O)c(CN(CC(=O)O)CC(=O)O)cc1C21OC(=O)c2ccccc21 [calcein]
- ethanol concentration at which leakage reaches a maximum [6]: around 40 % ethanol
- ethanol concentration at which leakage starts [6]: ≤ 30 % ethanol
